Source: paper PMC11530689, “Anti colorectal cancer activity and in silico studies of novel pyridine nortopsentin analog as cyclin dependent kinase 6 inhibitor” (Scientific Reports, 2024)

Assays:
Assay in all cases: NCI 60 cell line screen
Assay type in all cases: cell-based
SR = conditions: Leukemia, single concentration 10^−5 M
Protocol: (§1) The cytotoxic activity of nortopsintin analogs (4a-4j) was determined by the national cancer institute (NCI, Bethesda, Maryland, USA) against 60 different cancer cell lines at a single concentration of (10^-5 M). For the determination of IC50 value, we used MTT assay kit (Sigma) according to the manufacturer's protocol. HCT-116 cells were seeded into a 96-well plate at a concentration of 20,000 cells/well. After 24 h, the media was aspirated and replaced with serum-free media containing serial dilutions of the 4i compound. […] The percentage of cytotoxicity was calculated using the following equation: % Cytotoxicity = [1 - ([…])] × 100.

SF-268 = conditions: SF-268, CNS Cancer; single concentration 10^−5 M
Protocol: as §1

SNB-75 = conditions: SNB-75, CNS Cancer; single concentration 10^−5 M
Protocol: as §1

K-562 = conditions: K-562, Leukemia; single concentration 10^−5 M
Protocol: as §1

CAKI-1 = conditions: CAKI-1, Renal Cancer; single concentration 10^−5 M
Protocol: as §1

OVCAR-5 = conditions: OVCAR-5, Ovarian Cancer; single concentration 10^−5 M
Protocol: as §1

MALME-3M = conditions: Melanoma, single concentration 10^−5 M
Protocol: as §1

MDA-MB-435 = conditions: MDA-MB-435, Melanoma; single concentration 10^−5 M
Protocol: as §1

BT-549 = conditions: BT-549, Breast Cancer; single concentration 10^−5 M
Protocol: as §1

HL-60 (TB) = conditions: Leukemia, single concentration 10^−5 M
Protocol: as §1

SN12C = conditions: Renal Cancer, single concentration 10^−5 M
Protocol: as §1

NCI-H522 = conditions: NCI-H522, Non-Small Cell Lung Cancer; single concentration 10^−5 M
Protocol: as §1

SW-620 = conditions: SW-620, Colon Cancer; single concentration 10^−5 M
Protocol: as §1

TK-10 = conditions: TK-10, Renal Cancer; single concentration 10^−5 M
Protocol: as §1

RPMI-8226 = conditions: RPMI-8226, Leukemia; single concentration 10^−5 M
Protocol: as §1

SNB-19 = conditions: SNB-19, CNS Cancer; single concentration 10^−5 M
Protocol: as §1

MDA-MB-231/ATCC = conditions: Breast Cancer, single concentration 10^−5 M
Protocol: as §1

U251 = conditions: U251, CNS Cancer; single concentration 10^−5 M
Protocol: as §1

HOP-62 = conditions: HOP-62, Non-Small Cell Lung Cancer; single concentration 10^−5 M
Protocol: as §1

PC-3 = conditions: PC-3, Prostate Cancer; single concentration 10^−5 M
Protocol: as §1

HS 578T = conditions: Breast Cancer, single concentration 10^−5 M
Protocol: as §1

KM12 = conditions: KM12, Colon Cancer; single concentration 10^−5 M
Protocol: as §1

MOLT-4 = conditions: MOLT-4, Leukemia; single concentration 10^−5 M
Protocol: as §1

CCRF-CEM = conditions: Leukemia, single concentration 10^−5 M
Protocol: as §1

NCI-H460 = conditions: NCI-H460, Non-Small Cell Lung Cancer; single concentration 10^−5 M
Protocol: as §1

SF-295 = conditions: SF-295, CNS Cancer; single concentration 10^−5 M
Protocol: as §1

SK-MEL-2 = conditions: SK-MEL-2, Melanoma; single concentration 10^−5 M
Protocol: as §1

RXF 393 = conditions: RXF 393, Renal Cancer; single concentration 10^−5 M
Protocol: as §1

HCC-2998 = conditions: HCC-2998, Colon Cancer; single concentration 10^−5 M
Protocol: as §1

LOX IMVI = conditions: Melanoma, single concentration 10^−5 M
Protocol: as §1

IGROV1 = conditions: IGROV1, Ovarian Cancer; single concentration 10^−5 M
Protocol: as §1

MCF7 = conditions: MCF7, Breast Cancer; single concentration 10^−5 M
Protocol: as §1

HT29 = conditions: HT29, Colon Cancer; single concentration 10^−5 M
Protocol: as §1

UO-31 = conditions: UO-31, Renal Cancer; single concentration 10^−5 M
Protocol: as §1

M14 = conditions: M14, Melanoma; single concentration 10^−5 M
Protocol: as §1

DU-145 = conditions: DU-145, Prostate Cancer; single concentration 10^−5 M
Protocol: as §1

COLO205 = conditions: COLO205, Colon Cancer; single concentration 10^−5 M
Protocol: as §1

T-47D = conditions: Breast Cancer, single concentration 10^−5 M
Protocol: as §1

Row | Compound | Growth % (SR) | Growth % (SF-268) | Growth % (SNB-75) | Growth % (K-562) | Growth % (CAKI-1) | Growth % (OVCAR-5) | Growth % (MALME-3M) | Growth % (MDA-MB-435) | Growth % (BT-549) | Growth % (HL-60 (TB)) | Growth % (SN12C) | Growth % (NCI-H522) | Growth % (SW-620) | Growth % (TK-10) | Growth % (RPMI-8226) | Growth % (SNB-19) | Growth % (MDA-MB-231/ATCC) | Growth % (U251) | Growth % (HOP-62) | Growth % (PC-3) | other results
1 | N#Cc1c(-c2ccccc2)cc(-c2c[nH]c3ccccc23)nc1-c1c[nH]c2ccccc12 [4a] | 96.68% | 96.15% | 81.21% | 100.60% | 87.26% | 103.05% | 99.77% | 102.63% | 94.69% | 103.72% | 95.61% | 97.10% | 101.78% | 123.79% | 100.70% | 97.62% | 92.64% | 94.26% | 92.66% | 92.44% | Growth % (HS 578T): 93.45%; Growth % (KM12): 102.51%; Growth % (MOLT-4): 102.45%; Growth % (CCRF-CEM): 102.65%; Growth % (NCI-H460): 106.27%; Growth % (SF-295): 96.36%; Growth % (SK-MEL-2): 97.65%; Growth % (RXF 393): 94.99%; Growth % (HCC-2998): 93.57%; Growth % (LOX IMVI): 100.06%; Growth % (IGROV1): 82.09%; Growth % (MCF7): 94.97%; Growth % (HT29): 102.69%; Growth % (UO-31): 68.28%; Growth % (M14): 100.81%; Growth % (DU-145): 108.34%; Growth % (COLO205): 108.26%; Growth % (T-47D): 86.69%
2 | N#Cc1c(-c2ccc(Br)cc2)cc(-c2c[nH]c3ccccc23)nc1-c1c[nH]c2ccccc12 [4b] | 94.65% | 100.28% | 91.48% | 96.82% | 81.43% | 107.40% | 103.25% | 108.30% | 103.55% | 102.74% | 96.36% | 94.73% | 105.18% | 146.78% | 102.03% | 98.35% | 101.07% | 94.64% | 98.17% | 93.93% | Growth % (HS 578T): 97.14%; Growth % (KM12): 99.86%; Growth % (MOLT-4): 99.47%; Growth % (CCRF-CEM): 102.80%; Growth % (NCI-H460): 106.47%; Growth % (SF-295): 99.37%; Growth % (SK-MEL-2): 95.21%; Growth % (RXF 393): 109.74%; Growth % (HCC-2998): 114.86%; Growth % (LOX IMVI): 99.48%; Growth % (IGROV1): 73.65%; Growth % (MCF7): 85.19%; Growth % (HT29): 107.82%; Growth % (UO-31): 71.05%; Growth % (M14): 102.89%; Growth % (DU-145): 107.37%; Growth % (COLO205): 111.43%; Growth % (T-47D): 85.37%
3 | COc1cc(OC)cc(-c2cc(-c3c[nH]c4ccccc34)nc(-c3c[nH]c4ccccc34)c2C#N)c1 [4f] | 81.27% | 99.97% | 87.63% | 93.22% | 91.03% | 108.89% | 108.42% | 99.41% | 103.60% | 101.74% | 95.11% | 92.06% | 102.51% | 124.45% | 98.96% | 96.57% | 100.79% | 99.96% | 96.31% | 93.60% | Growth % (HS 578T): 102.35%; Growth % (KM12): 98.72%; Growth % (MOLT-4): 98.62%; Growth % (NCI-H460): 103.37%; Growth % (SF-295): 101.07%; Growth % (SK-MEL-2): 88.37%; Growth % (RXF 393): 107.63%; Growth % (HCC-2998): 112.62%; Growth % (LOX IMVI): 82.70%; Growth % (IGROV1): 93.71%; Growth % (MCF7): 90.74%; Growth % (HT29): 108.12%; Growth % (UO-31): 71.31%; Growth % (M14): 94.97%; Growth % (DU-145): 101.42%; Growth % (COLO205): 110.17%; Growth % (T-47D): 98.31%
